{"source": "patent US10934346B2", "about": "“Modified T cell comprising a polynucleotide encoding an inducible stimulating molecule comprising MyD88, CD40 and FKBP12” (priority 2014, dated 2021)", "key": {"[1]": {"test_system": "BLK CL4 fibroblasts", "test": "IL-6 ELISA of adenovirus-transduced BLK CL4 fibroblasts with AP1903", "assay_type": "cell-based", "conditions": "100 nM AP1903", "experimental": "BLK.CL4 fibroblasts were cultured at 175,000 cells/ml/well in 24-well plates. Adenoviruses were added at 6000, 12000, 18000, 24000 and 30000 virus/cell ratio and cells were incubated for 24 hours. Then, 100 nM of AP1903 was added to all the wells, and the following day cells and culture supernatants were harvested. A. Cells were labeled with anti-human PSMA antibody, LNI-17, (Biolegend, San Diego, Calif.) and PSMA expression was analyzed by flow cytometry. Represented is the percentage of PSMA^+ cells when compared to non-transduced cells. B. IL-6 was evaluated from the culture supernatants by ELISA (e-Bioscience, San Diego, Calif.). For FIG. 31, BLK.CL4 fibroblasts were cultured at 350,000 cells/well in 6-well plates. Adenoviruses were added at 20,000 v.p./cell ratio and cells were incubated for 24 hours. Then, 100 nM of AP1903 was added, and the following day culture supernatants were harvested. IL-6 was evaluated from the culture supernatants by ELISA (e-Bioscience, San Diego, Calif.)."}, "[2]": {"test_system": "iMC-expressing T cells", "test": "Survival and growth of iMC-transduced T cells with weekly rimiducid, with or without IL-2", "assay_type": "cell-based, human", "experimental": "FIGS. 8A-8C provide assay results of iMC signaling in primary T cells induces cell survival in the absence of IL-2. FIG. 8A and FIG. 8B) FKBP and iMC transduced T cells were cultured in media supplemented with or without 100 U/ml IL-2 and stimulated on a weekly basis with 10 nM rimiducid (CID) and measured for growth by cell counting. FIG. 8C) iMC-modified T cells cultured in media without IL-2, with and without CID stimulation, were measured for viability by flow cytometry (SSC, FSC) after 42 days in culture. * indicates p-value <0.05.\nThe phosphorylation of key downstream signaling molecules, including JNK, Akt, RelA, ERK and p38 MAPK was measured in the induced iMC T cells."}, "[3]": {"test_system": "T cells transduced with RV-172 (iMC)", "test": "AP1903-induced T cell activation, 27-plex cytokine/chemokine bead array", "assay_type": "cell-based, human", "conditions": "10 nM AP1903, 24 hours, RV-172 T cells", "experimental": "5. To assess AP1903-dependent T cell activation of T cells, 1×10^5 non-transduced (NT) or T cells transduced with the control retrovirus (RV-171) or the retrovirus containing iMC (RV-172) were plated in triplicate in 96-well plates and cultured at 37° C. 5% CO2 with media alone, or media containing 10 nM AP1903. 6. After 24 hours, the cells were gently mixed and the plate was centrifuged. Supernatant was then collected and plated into a BIOPLEX Human Cytokine/Chemokine 27-plex plate, which measures the following cytokines and chemokines: • a. Basic-FGF, G-CSF, GM-CSF, IFN-gamma, IL-1Ra, IL-1beta, IL-2, IL-4, IL-5, IL-6, […], IL-7, […], IL-9, IL-10, IL-12p70, IL-13, IL-15, IL-17RA, eotaxin, IP10, MCP-1, MIP-1alpha, MIP-1beta, PDGF-bb, RANTES, TNF-alpha and VEGF. • b. The cytokines and chemokines in the supernatants were subsequently measured and compared to standards in the plate using a BIOPLEX MAGPIX Multiplex Reader.\nT cells were stimulated with 10 nM AP1903 for 24 hours then supernatants were assayed for cytokine levels."}, "[4]": {"conditions": "cited from earlier work"}, "[5]": {"test_system": "CAPAN-1 GFP+ tumor cells", "test": "Co-culture of iMC-enabled T cells with CAPAN-1-GFP tumor cells", "assay_type": "cell-based, human", "conditions": "10 nM AP1903, 5:1 T cells to tumor cells, 72 hours, RV-172 T cells", "experimental": "FIG. 53 Activation of iMC-transduced T cells with AP1903 induces T cell killing of tumor cells. […] Co-cultures were cultured with or without 10 nM AP1903. After 72 hours, co-cultures were analyzed for GFP^+ tumor cells (X-axis) by flow cytometry.\nFIG. 55: Activation of iMC-transduced T cells with AP1903 induces T cell killing of tumor cells. […] Co-cultures were cultured with or without 10 nM AP1903. After 72 hours, co-cultures were analyzed for GFP^+ tumor cells by flow cytometry (n=2).\nFIG. 56: Activation of iMC-transduced T cells with AP1903 induces T cell killing of tumor cells. […] Co-cultures were cultured with or without 10 nM AP1903.\n3. Non-transduced T cells or cells transduced with RV-171 (control vector) or RV-172 (iMC vector) were cultured at a 5:1 ratio of T cells to tumor cells in media supplemented with 50 U/ml IL-2, and either with or without 10 nM AP1903. Co-cultures were then incubated at 37° C. and 5% CO2 for 72 hours. Cultures were subsequently analyzed for the presence of GFP^+ tumor cells by fluorescent microscopy and by harvesting the cultures with 0.25% trypsin/EDTA and measuring the frequency of GFP^+CD3^− tumor cells in the culture by flow cytometry."}}, "note": "Entries after “also recorded” stand apart in the source; their conditions may differ. Read-outs that look alike come from different tables or passages of the source."}
{"smiles": "CC[C@H](C(=O)N1CCCC[C@H]1C(=O)O[C@H](CCc1ccc(OC)c(OC)c1)c1cccc(OCC(=O)NCCNC(=O)COc2cccc([C@@H](CCc3ccc(OC)c(OC)c3)OC(=O)[C@@H]3CCCCN3C(=O)[C@@H](CC)c3cc(OC)c(OC)c(OC)c3)c2)c1)c1cc(OC)c(OC)c(OC)c1", "note": "(relative stereo) [rimiducid, 2-Piperidinecarboxylic acid, 1-[(2S)-1-oxo-2-(3,4,5-trimethoxyphenyl)butyl]-, 1,2-ethanediylbis [imino(2-oxo-2,1-ethanediyl)oxy-3,1-phenylene[(1R)-3-(3,4-Dimethoxyphenyl)propylidene]] ester, [2S-[1(R*),2R*[S*[S*[1(R*),2R*]]]]]-(9Cl)]", "values": [{"measurement": "IL-6 production", "setting": "[1]", "value": "response to AP1903 by producing IL-6"}, {"measurement": "T cell proliferation", "setting": "[2]; IL-2 withdrawn", "value": "no proliferation was observed"}, {"measurement": "T cell survival and expansion", "setting": "[2]; in the presence of exogenous IL-2", "value": "increased T cell survival and cell expansion"}, {"measurement": "cytokines and chemokines induced", "setting": "[3]", "value": "GM-CSF, IFN-gamma, IL-13, IL-4, IL-5, IL-6, IL-8, IL-1beta, IL-12p70, IP10, MIP-1alpha, MIP-1beta, RANTES, and TNF-alpha"}, {"measurement": "cytokines and chemokines not induced", "setting": "[3]", "value": "Basic-FGF, G-CSF, IL-1Ra, IL-2, IL-7, IL-9, IL-10, IL-15, IL-17RA, eotaxin, MCP-1, PDGF-bb and VEGF"}, {"measurement": "plasma levels versus dose", "setting": "[4]; 0.01, 0.05, 0.1, 0.5 and 1.0 mg/kg", "value": "directly proportional to dose"}, {"measurement": "plasma level as % of maximal concentration", "setting": "[4]; 0.5 hours post-dose", "value": "approximately 18%"}, {"measurement": "plasma level as % of maximal concentration", "setting": "[4]; 2 hours post-dose", "value": "~7", "unit": "%"}, {"measurement": "plasma level as % of maximal concentration", "setting": "[4]; 10 hours post-dose", "value": "~1", "unit": "%"}, {"measurement": "well-tolerated doses", "setting": "[4]; Phase I study", "value": "up to 1 mg/kg"}, {"measurement": "mean Cmax", "setting": "[4]; plasma, over the 0.01-1.0 mg/kg dose range, infused IV over 2 hours", "value": "10 to 1275", "unit": "ng/mL"}, {"measurement": "GFP+ tumor cells remaining", "setting": "[5]", "value": "elimination of GFP^+ tumor cells; also recorded: showed very few viable GFP^+ tumor cells"}]}
